Measurements from publication PMC7647782, “Cytotoxic, Antioxidant, and Metabolic Enzyme Inhibitory Activities of Euphorbia cyparissias Extracts” (Oxidative Medicine and Cellular Longevity, 2020).

Biological target: DrPLA2-IB (Camelus dromedarius, UniProt A0A5N4C9D4)
Assay: Phospholipase activity inhibition, dromedary PLA2-IB
Type: biochemical
Description: Dromedary (DrPlA2-IB), porcine (PPPlA2-IB), and stingray group IB phospholipases (SPLA2-IB) were purified and prepared as described in our previous works and De Haas et al., respectively. Dromedary (DrPL), stingray (SPL), and porcine (PPL) lipases were also purified according to protocols optimized in previous works. The enzymes β-glucosidase, α-amylase, and XO were purchased from Sigma-Aldrich (St. Louis, MO, USA).
The phospholipase activities were measured based on the De Araújo and Radvanyi method. The inhibitory effect of various extracts was determined using samples of dromedary, stingray, and porcine digestive group IB phospholipases (PLA2-IB). A 10 μL sample of ethanolic or aqueous extract was mixed with 10 μL of PLA2-GIB and preincubated for 20 min at room temperature. The mixture was added to 1 mL of the substrate, which was composed of lecithin (3.5 mM) solubilized in 100 mM NaCl, 3 mM sodium taurodeoxycholate, 10 mM CaCl2, and 0.055 mM red phenol at a pH of 7.6. The activity was verified by measuring spectrophotometrically the absorbance at 558 nm for 5 min. The inhibition percentage was calculated by measuring residual activity compared to negative control assay (absence of extract). The IC50 values were determined from the curve.
The activities of these enzymes were measured using the pH-stat technique on olive oil emulsion at optimal conditions for enzyme activity. […]

Chain of DrPLA2-IB (A0A5N4C9D4 23-145): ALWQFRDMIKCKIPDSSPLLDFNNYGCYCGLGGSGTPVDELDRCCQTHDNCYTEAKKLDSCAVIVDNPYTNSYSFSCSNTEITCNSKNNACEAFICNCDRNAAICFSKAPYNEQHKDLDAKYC

Q: With `CC1(C)CC[C@]2(C(=O)O)CC[C@]3(C)C(=CC[C@@H]4[C@@]5(C)CC[C@H](O)C(C)(C)[C@@H]5CC[C@]43C)[C@@H]2C1` [Oleanolic acid, oleanolic acid] as the compound, how does the IC50 read?
A: 174 µM
